{"source": "patent US11464753B2", "about": "“Composition for treatment of neurodegenerative disease” (WINNING THE FIGHT INC., priority 2013, dated 2022)", "key": {"ALS patients": {"system": "ALS patients", "assay": "Administration of AKG-containing compositions to human ALS patients, observation of symptoms", "procedure": "In one example, 250 mg of GABA was administered three times per day per os, 30 mg of NADH was administered twice per day sublingually, and 3 grams of AAKG were administered, initially, four times per day per os, with the dosage gradually increasing up to 18 grams, if tolerated by the patient."}, "[1]": {"system": "patients suffering from neurodegenerative diseases", "assay": "Oral AKG in patients suffering from neurodegenerative diseases", "type": "in vivo, human", "text": "Initial results in mutant SOD1 mice show similar benefits compared to controls, when administered one example of the composition. […] In some instances, progression of the diseases were delayed or even reversed in human patients.\nIn Example A of Table A a sustained release formulation of […] is preferred.\nFor example, an […] ([…] or […]) is included in a composition to be used by patients with a neurodegenerative disease at a baseline dosage.\nResults for people with various neurodegenerative diseases have shown that a core composition taken three times daily can provide a combination of supplements that are needed by the patients."}}, "note": "Entries after “also recorded” stand apart in the source; their conditions may differ.", "data": [{"compound": "NCCCC(=O)O", "note": "[GABA, gamma aminobutyric acid]", "values": [{"measurement": "muscle tone and muscle spasticity", "setting": "ALS patients; GABA administered as a supplement, patients with neurodegenerative diseases such as ALS", "result": "restore muscle tone; also recorded: diminished muscle spasticity"}]}, {"compound": "O=C(O)CCC(=O)C(=O)O", "note": "[AKG, alpha-ketoglutaric acid]", "values": [{"measurement": "improvement at sub-optimal dosage", "setting": "[1]; AKG dosage of only six to eight grams", "result": "some improvement"}, {"measurement": "symptoms when AKG was withheld", "setting": "[1]; AKG withheld from a patient, then recommenced", "result": "symptoms returned"}, {"measurement": "symptoms of neurodegenerative disease", "setting": "[1]; human patients (ALS, Alzheimers, Muscular Distrophy) taking AKG", "result": "fewer symptoms of the diseases; also recorded: marked, obvious improvements"}, {"measurement": "improvement with hourly AKG", "setting": "ALS patients; human patient, AKG supplement hourly during waking hours compared to four times per day", "result": "marked improvement"}, {"measurement": "symptoms of ALS after withdrawal of AKG", "setting": "ALS patients; withdrawal for a short period (a few days)", "result": "return of symptoms of ALS"}]}]}
